Measured values: patent US11208412B2 (DAEGU-GYEONGBUK MEDICAL INNOVATION FOUNDATION, priority 2017, dated 2021)
Where two headings read alike, the source gives them in different places.

Assays:
Experiment in all cases: Kinase selectivity, DiscoverX scanMAX Kinase assay panel (% control)
Format in all cases: binding
[1] = target: T1, kinases of the scanMAX Kinase assay panel (Homo sapiens, UniProt O75914); conditions: PAK3; 1 uM
T1 construct: purchased DiscoverX Co. (contract measurement) scanMAX Kinase assay panel
T1 sequence (O75914 whole entry): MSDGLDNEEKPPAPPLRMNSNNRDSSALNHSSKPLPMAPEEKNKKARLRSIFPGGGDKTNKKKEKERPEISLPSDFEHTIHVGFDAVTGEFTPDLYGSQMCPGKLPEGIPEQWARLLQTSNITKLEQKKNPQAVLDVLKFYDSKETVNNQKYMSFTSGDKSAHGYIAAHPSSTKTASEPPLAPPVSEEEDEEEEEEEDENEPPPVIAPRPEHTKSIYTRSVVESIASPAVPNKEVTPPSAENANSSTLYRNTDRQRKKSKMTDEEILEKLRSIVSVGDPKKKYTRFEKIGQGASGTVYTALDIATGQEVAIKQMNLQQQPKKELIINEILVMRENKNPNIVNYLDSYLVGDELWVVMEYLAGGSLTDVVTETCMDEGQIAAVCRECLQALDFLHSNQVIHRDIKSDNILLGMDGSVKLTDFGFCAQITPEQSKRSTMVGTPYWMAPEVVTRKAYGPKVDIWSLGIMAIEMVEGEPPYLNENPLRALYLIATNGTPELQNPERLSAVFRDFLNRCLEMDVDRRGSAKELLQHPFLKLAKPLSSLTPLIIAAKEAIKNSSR
Procedure, shortened: (§1)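 Read-out is % control, normalised so a positive-control compound sits at 0% and DMSO at 100%: (test − positive)/(negative − positive)×100. Each kinase received the compound at 1 uM in DMSO. A value below 35% counts as activity.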

[2] = target: T2, kinases of the scanMAX Kinase assay panel (Homo sapiens, UniProt P00519, M351T); conditions: ABL1(M351T)-phosphorylated; 1 uM
T2 construct: purchased DiscoverX Co. (contract measurement) scanMAX Kinase assay panel
Procedure, shortened: as §1

[3] = target: T3, kinases of the scanMAX Kinase assay panel (Homo sapiens, UniProt P51812); conditions: 1 uM in DMSO
T3 construct: purchased DiscoverX Co. (contract measurement) scanMAX Kinase assay panel
T3 sequence (P51812 whole entry): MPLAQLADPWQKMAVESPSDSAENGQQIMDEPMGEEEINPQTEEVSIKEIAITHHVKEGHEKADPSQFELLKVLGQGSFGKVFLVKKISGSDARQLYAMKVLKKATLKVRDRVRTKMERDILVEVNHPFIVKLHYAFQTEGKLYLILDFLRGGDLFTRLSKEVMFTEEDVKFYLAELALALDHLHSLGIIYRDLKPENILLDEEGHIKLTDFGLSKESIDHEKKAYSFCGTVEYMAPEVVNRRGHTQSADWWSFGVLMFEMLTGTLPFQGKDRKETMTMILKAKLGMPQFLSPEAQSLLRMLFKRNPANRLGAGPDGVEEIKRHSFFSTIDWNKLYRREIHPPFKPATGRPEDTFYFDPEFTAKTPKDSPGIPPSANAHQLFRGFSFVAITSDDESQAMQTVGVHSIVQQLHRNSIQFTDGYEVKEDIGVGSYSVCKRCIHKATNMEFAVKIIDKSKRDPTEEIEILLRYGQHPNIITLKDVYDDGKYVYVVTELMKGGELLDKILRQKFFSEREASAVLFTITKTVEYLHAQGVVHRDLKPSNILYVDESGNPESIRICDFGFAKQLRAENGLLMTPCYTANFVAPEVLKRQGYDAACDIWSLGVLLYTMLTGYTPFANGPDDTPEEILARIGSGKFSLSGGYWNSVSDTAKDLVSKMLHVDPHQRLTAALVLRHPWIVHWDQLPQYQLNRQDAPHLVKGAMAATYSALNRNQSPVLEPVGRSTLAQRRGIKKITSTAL
Procedure, shortened: as §1

[4] = target: T4, kinases of the scanMAX Kinase assay panel (Homo sapiens, UniProt P57078); conditions: kinase RIPK4; 1 uM in DMSO
T4 construct: purchased DiscoverX Co. (contract measurement) scanMAX Kinase assay panel
T4 sequence (P57078 1-832): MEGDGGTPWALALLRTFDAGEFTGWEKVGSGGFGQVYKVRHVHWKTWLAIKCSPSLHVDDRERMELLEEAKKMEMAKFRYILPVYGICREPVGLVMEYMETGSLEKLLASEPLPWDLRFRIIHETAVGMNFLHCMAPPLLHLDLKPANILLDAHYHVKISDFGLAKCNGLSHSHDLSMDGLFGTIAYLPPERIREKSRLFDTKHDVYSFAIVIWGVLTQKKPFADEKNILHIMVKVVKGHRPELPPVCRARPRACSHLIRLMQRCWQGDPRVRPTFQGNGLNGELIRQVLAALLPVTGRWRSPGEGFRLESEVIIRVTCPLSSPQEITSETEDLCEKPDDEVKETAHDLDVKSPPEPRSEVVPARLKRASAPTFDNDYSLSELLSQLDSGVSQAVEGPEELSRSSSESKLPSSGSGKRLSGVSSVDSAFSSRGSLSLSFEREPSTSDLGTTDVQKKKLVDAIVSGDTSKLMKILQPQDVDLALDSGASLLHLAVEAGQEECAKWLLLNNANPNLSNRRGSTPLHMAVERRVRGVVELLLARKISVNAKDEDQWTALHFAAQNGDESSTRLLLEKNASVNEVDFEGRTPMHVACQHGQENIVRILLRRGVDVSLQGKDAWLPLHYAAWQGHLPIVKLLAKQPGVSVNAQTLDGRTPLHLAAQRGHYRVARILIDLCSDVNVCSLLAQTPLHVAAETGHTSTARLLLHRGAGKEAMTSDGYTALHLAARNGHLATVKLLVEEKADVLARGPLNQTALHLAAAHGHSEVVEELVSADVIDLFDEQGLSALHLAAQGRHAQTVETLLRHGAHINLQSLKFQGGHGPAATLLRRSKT
Procedure, shortened: as §1

[5] = target: T5, kinases of the scanMAX Kinase assay panel (Homo sapiens, UniProt P80192); conditions: MLK1; 1 uM
T5 construct: purchased DiscoverX Co. (contract measurement) scanMAX Kinase assay panel
T5 sequence (P80192 whole entry): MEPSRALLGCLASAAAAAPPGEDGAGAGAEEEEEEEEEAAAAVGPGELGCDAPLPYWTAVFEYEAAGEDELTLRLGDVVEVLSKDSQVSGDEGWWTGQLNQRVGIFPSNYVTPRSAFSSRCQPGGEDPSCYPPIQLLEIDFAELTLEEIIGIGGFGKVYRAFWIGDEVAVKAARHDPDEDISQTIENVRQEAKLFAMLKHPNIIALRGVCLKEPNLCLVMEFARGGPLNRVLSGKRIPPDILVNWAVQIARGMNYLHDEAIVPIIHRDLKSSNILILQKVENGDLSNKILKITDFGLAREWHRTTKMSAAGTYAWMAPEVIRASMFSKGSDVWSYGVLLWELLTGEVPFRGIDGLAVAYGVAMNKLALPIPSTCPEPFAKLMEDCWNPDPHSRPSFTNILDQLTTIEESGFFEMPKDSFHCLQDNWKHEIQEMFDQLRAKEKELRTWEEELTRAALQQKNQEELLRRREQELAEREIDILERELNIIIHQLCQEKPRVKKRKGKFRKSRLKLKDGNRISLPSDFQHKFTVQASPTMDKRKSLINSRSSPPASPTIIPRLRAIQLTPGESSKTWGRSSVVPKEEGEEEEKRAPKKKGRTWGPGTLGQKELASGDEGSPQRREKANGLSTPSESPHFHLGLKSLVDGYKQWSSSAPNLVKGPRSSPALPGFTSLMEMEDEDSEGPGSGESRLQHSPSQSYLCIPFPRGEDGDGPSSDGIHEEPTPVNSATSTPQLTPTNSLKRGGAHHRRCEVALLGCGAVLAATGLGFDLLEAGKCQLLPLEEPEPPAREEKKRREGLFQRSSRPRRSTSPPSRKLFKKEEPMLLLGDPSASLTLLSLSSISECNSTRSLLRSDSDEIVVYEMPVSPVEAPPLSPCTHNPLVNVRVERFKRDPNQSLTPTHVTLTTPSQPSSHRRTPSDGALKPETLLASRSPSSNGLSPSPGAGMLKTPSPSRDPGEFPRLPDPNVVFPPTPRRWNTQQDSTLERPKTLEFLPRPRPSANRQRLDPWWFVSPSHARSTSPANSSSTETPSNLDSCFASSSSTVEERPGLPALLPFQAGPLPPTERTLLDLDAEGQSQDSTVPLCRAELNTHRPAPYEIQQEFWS
Procedure, shortened: as §1

[6] = target: T6, kinases of the scanMAX Kinase assay panel (Homo sapiens, UniProt O76039); conditions: CDKL5; 1 uM
T6 construct: purchased DiscoverX Co. (contract measurement) scanMAX Kinase assay panel
T6 sequence (O76039 1-960): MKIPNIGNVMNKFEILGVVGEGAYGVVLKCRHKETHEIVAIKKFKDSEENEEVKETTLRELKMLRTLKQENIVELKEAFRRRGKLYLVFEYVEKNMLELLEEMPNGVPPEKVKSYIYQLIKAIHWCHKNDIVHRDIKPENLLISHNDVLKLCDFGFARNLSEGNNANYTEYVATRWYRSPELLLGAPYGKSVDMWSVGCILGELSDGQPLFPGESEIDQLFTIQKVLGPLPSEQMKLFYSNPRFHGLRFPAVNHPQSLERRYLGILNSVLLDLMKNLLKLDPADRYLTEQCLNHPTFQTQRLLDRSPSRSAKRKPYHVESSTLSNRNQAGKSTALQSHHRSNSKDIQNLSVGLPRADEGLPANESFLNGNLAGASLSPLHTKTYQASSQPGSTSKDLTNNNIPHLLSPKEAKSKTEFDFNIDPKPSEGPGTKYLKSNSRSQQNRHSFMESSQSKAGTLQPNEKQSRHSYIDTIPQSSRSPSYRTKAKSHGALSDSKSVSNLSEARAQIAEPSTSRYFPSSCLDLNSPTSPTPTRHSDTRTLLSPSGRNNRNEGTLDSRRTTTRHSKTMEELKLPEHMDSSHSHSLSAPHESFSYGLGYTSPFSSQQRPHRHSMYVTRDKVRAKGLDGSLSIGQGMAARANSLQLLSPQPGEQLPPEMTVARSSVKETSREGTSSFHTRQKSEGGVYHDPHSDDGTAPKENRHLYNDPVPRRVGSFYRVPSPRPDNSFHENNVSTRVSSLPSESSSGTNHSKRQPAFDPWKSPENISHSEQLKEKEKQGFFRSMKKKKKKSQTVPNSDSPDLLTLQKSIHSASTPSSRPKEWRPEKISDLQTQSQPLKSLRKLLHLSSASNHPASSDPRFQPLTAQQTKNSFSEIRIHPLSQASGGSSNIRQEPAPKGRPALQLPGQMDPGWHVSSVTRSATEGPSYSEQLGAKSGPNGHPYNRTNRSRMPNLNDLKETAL
Procedure, shortened: as §1

[7] = target: T7, kinases of the scanMAX Kinase assay panel (Homo sapiens, UniProt Q9Y4K4); conditions: MAP4K5; 1 uM
T7 construct: purchased DiscoverX Co. (contract measurement) scanMAX Kinase assay panel
T7 sequence (Q9Y4K4 whole entry): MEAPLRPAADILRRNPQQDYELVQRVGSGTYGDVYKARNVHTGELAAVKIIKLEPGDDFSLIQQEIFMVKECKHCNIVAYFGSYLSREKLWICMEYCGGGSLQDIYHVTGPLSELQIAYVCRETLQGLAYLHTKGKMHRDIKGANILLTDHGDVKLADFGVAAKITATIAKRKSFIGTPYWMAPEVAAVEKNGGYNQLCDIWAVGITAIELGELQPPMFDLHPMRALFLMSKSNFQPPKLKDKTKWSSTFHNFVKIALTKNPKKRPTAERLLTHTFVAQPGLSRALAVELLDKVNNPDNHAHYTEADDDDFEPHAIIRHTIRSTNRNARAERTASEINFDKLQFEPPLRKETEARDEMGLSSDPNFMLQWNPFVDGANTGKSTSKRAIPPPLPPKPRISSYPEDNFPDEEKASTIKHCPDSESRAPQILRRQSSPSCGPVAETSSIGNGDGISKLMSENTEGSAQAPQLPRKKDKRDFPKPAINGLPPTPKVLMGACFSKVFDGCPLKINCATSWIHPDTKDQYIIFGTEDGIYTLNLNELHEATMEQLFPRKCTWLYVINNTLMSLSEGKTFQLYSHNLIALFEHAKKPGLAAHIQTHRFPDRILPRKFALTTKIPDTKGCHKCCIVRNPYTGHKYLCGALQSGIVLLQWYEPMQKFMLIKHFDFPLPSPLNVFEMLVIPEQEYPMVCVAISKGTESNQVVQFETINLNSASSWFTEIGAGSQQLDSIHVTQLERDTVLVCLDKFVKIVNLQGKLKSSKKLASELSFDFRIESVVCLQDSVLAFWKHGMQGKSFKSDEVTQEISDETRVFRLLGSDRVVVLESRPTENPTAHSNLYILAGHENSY
Procedure, shortened: as §1

[8] = kinase RSK2(Kin.Dom.1-N-terminal), read-out: % control, RSK2(Kin.Dom.1-N-terminal)
[9] = kinase RSK2(Kin.Dom.2-C-terminal), read-out: % control, RSK2(Kin.Dom.2-C-terminal)

Row | SMILES | remaining binding at 1 µM [1] [%] | remaining binding at 1 µM [2] [%] | remaining binding at 1 µM [3, 8] [%] | remaining binding at 1 µM [3, 9] [%] | remaining binding at 1 µM [4] [%] | remaining binding at 1 µM [5] [%] | remaining binding at 1 µM [6] [%] | remaining binding at 1 µM [7] [%]
1 | CCNc1nc(Nc2ccc(C(=O)N3CCC(N4CCOCC4)CC3)cc2OC)nc2[nH]cc(C(F)(F)F)c12 [Example 104, (4-((4-(ethylamino)-5-(trifluoromethyl)-7H-pyrrolo[2,3-d]pyrimidine-2-yl)amino)-3-methoxyphenyl)(4-morpholinopiperidine-1-yl)methanone] | 100 | 100 | 100 | 71 | 0.6 | 66 | 100 | 100
2 | CC1(Nc2nc(Nc3cnn([C@H]4CCN(C5COC5)C[C@@H]4F)c3Cl)nc3[nH]cc(C#N)c23)CC1 [Example 52, 2-((5-chloro-1-((3S,4S)-3-fluoro-1-(oxetane-3-yl)piperidine-4-yl)-1H-pyrazole-4-yl)amino)((1-methylcyclopropyl)amino)-7H-pyrrolo[2,3-d]pyrimidine-5-carbonitrile] | 17 | 2.6 | 0.55 | 100 | 1.6 | 0.5 | 100 | 30
3 | CNc1nc(Nc2ccc(C(=O)N3CCOCC3)cc2OC)nc2[nH]cc(C#N)c12 [Example 1, 2-((2-methoxy-4-(morpholine-4-carbonyl)phenyl)amino)-4-(methylamino)-7H-pyrrolo[2,3-d]pyrimidine-5-carbonitrile] | 68 | 62 | 68 | 66 | 72 | 81 | 76 | 89
